ChEMBL document CHEMBL5523668, “Elongation of N6-benzyladenosine scaffold via Pd-catalyzed C-C bond formation leads to derivatives with antiflaviviral activity” (Bioorg Med Chem, 2024)
The source made the active and inactive calls. The rule behind the calls is not given here.

Tests used:
Yellow fever virus = assay: Antiviral activity against YFV infected in African green monkey Vero cells assessed as reduction in cytopathic effect by plaque reduction assay; type: functional, organism-based
West Nile virus [1] = assay: Antiviral activity against WNV infected in African green monkey Vero cells assessed as reduction in cytopathic effect by plaque reduction assay; type: functional, organism-based
[2] = Cytotoxicity against porcine PEK cells assessed as reduction in cell viability after 7 days by resazurin staining based analysis; type: toxicity, Sus scrofa; settings: pig, time 7 day
[3] = test system: Tick-borne encephalitis virus; assay: Antiviral activity against TBEV infected in porcine PEK cells assessed as reduction in cytopathic effect by plaque reduction assay; type: functional, organism-based
[4] = Cytotoxicity against African green monkey Vero cells assessed as reduction in cell viability after 7 days by resazurin staining based analysis; type: toxicity; settings: chlorocebus sabaeus, time 7 day
[5] = Cytotoxicity against human RD cells; type: toxicity, cell-based
[6] = test system: Tick-borne encephalitis virus; assay: Antiviral activity against TBEV infected in porcine PS cells pretreated with cells followed by viral infection and measured after 3 days post infection by microscope based analysis; type: functional, organism-based
[7] = test system: Tick-borne encephalitis virus; assay: Antiviral activity against TBEV infected in porcine PS cells assessed as inhibition of virus induced cytopathic effect pre-infected with virus followed by compound addition and measured after 3 to 4 days by microscope based analysis; type: functional, organism-based
West Nile virus [8] = assay: Antiviral activity against WNV NY99 infected in African green monkey Vero cells pretreated with cells for 16 hrs followed by viral infection for 1 hr and measured after 48 hrs by plaque assay; type: functional, organism-based
[9] = Cytotoxicity against porcine PEK cells assessed as reduction in cell viability after 24 hrs by resazurin staining based analysis; type: toxicity, Sus scrofa; settings: pig
[10] = Cytotoxicity against African green monkey Vero cells assessed as reduction in cell viability after 24 hrs by resazurin staining based analysis; type: toxicity; settings: chlorocebus sabaeus
Enterovirus A71 = assay: Antiviral activity against human EV71 BrCr infected human RD cells assessed as reduction in cytopathic effect pretreated with cells followed by viral infection and measured after 3 to 4 days post infection; type: functional, organism-based; settings: Enterovirus A
West Nile virus [11] = assay: Antiviral activity against WNV infected in African green monkey Vero cells assessed as viral growth inhibition pre-treated with compound for 2 hrs followed by viral infection and measured 24 hrs post infection; type: functional, organism-based; settings: time 26.0 hrs
West Nile virus [12] = assay: Antiviral activity against WNV infected in African green monkey Vero cells assessed as viral growth inhibition measured after 24 hrs; type: functional, organism-based
West Nile virus [13] = assay: Antiviral activity against WNV infected in African green monkey Vero cells assessed as viral growth inhibition pre-infected with virus for 2 hrs followed by compound addition and measured 24 hrs post infection by time of addition assay; type: functional, organism-based; settings: time 22.0 hrs
West Nile virus [14] = assay: Antiviral activity against WNV infected in African green monkey Vero cells assessed as viral growth inhibition pre-infected with virus for 2 hrs followed by compound addition and measured after compound washout at 5 hrs post infection; type: functional, organism-based; settings: time 3.0 hrs
West Nile virus [15] = assay: Antiviral activity against WNV infected in African green monkey Vero cells assessed as viral growth inhibition pre-infected with virus for 5 hrs followed by compound addition and measured 24 hrs post infection; type: functional, organism-based; settings: time 19.0 hrs
[16] = Selectivity index, ratio of CC50 for human A549 cells to EC50 for TBEV infected in human A549 cells; type: toxicity, cell-based; settings: read-out: Ratio CC50/EC50
[17] = test system: Tick-borne encephalitis virus; assay: Antiviral activity against TBEV infected in human A549 cells assessed as inhibition of virus induced cytopathic effect; type: functional, organism-based
[18] = test system: Tick-borne encephalitis virus; assay: Antiviral activity against TBEV infected in porcine PS cells assessed as r inhibition of virus induced cytopathic effect pretreated with cells for 24 hrs followed by viral infection for 24 hrs and measured after 72 hrs post infection; type: functional, organism-based
[19] = test system: Tick-borne encephalitis virus; assay: Antiviral activity against TBEV infected in human A549 cells assessed as reduction in cytopathic effect pretreated with cells for 1 hr followed by viral infection and measured after 3 days; type: functional, organism-based
[20] = test system: Tick-borne encephalitis virus; assay: Antiviral activity against TBEV infected in porcine PEK cells pre-infected for 1 hr followed by cell addition for 1 hrs and measured after 6 days; type: functional, organism-based
West Nile virus [21] = assay: Antiviral activity against WNV infected in African green monkey Vero cells; type: functional, organism-based

Row | Compound | EC50 (Yellow fever virus) | EC50 (West Nile virus [1]) | CC50 at 168 h [2] | EC50 [3] | CC50 at 168 h [4] | other results
1 | OC[C@H]1O[C@@H](n2cnc3c(NCc4ccccc4C(F)(F)F)ncnc32)[C@H](O)[C@@H]1O | > 50 µM | 7.7 µM | > 50 µM | > 50 µM | > 50 µM | 
2 | OC[C@H]1O[C@@H](n2cnc3c(NCc4cccc(C(F)(F)F)c4)ncnc32)[C@H](O)[C@@H]1O | > 50 µM | 8 µM | > 50 µM | > 50 µM | > 50 µM | CC50 [5]: > 235 µM
3 | OC[C@H]1O[C@@H](n2cnc3c(NCc4ccc(C#CC5CC5)cc4)ncnc32)[C@H](O)[C@@H]1O | > 50 µM | 32 µM | > 50 µM | > 50 µM | > 50 µM | 
4 | OC[C@H]1O[C@@H](n2cnc3c(NCc4cc(C(F)(F)F)cc(C(F)(F)F)c4)ncnc32)[C@H](O)[C@@H]1O | > 50 µM | 16 µM | > 50 µM | > 50 µM | > 50 µM | 
5 | [N-]=[N+]=N[C@]1(CO)O[C@@H](n2ccc(N)nc2=O)[C@H](O)[C@@H]1O [4'-AZIDOCYTIDINE] |  |  |  |  |  | EC50 [6]: 2.7 µM
6 | C[C@@]1(O)[C@H](O)[C@@H](CO)O[C@H]1n1cnc2c(N)ncnc21 |  |  |  |  |  | EC50 [7]: 7.1 µM
7 | NC(=O)c1nc(F)cnc1O [FAVIPIRAVIR] |  |  |  |  | > 1000 µM | EC50 (West Nile virus [8]): 94 µM
8 | OC[C@H]1O[C@@H](n2cnc3c(NCc4ccc(-c5ccccc5C(F)(F)F)cc4)ncnc32)[C@H](O)[C@@H]1O | 46 µM | 24 µM | > 50 µM | 17 µM | > 41 µM | CC50 at 24 h [9]: > 50 µM; CC50 at 24 h [10]: > 50 µM
9 | OC[C@H]1O[C@@H](n2cnc3c(NCc4ccc(C(F)(F)F)cc4)ncnc32)[C@H](O)[C@@H]1O | > 50 µM | 7 µM | > 50 µM | > 50 µM | > 50 µM | 
10 | OC[C@H]1O[C@@H](n2cnc3c(NCc4c(F)cccc4F)ncnc32)[C@H](O)[C@@H]1O |  |  |  |  |  | CC50 [5]: > 245 µM; EC50 (Enterovirus A71): 0.21 µM
11 | OC[C@H]1O[C@@H](n2cnc3c(NCc4ccc(-c5cccc(C(F)(F)F)c5)cc4)ncnc32)[C@H](O)[C@@H]1O | 31 µM | 6.8 µM | 36.7 µM | 6 µM | > 50 µM | Activity (West Nile virus [11]): inactive; Activity (West Nile virus [12]): inactive; Activity (West Nile virus [13]): Active; CC50 at 24 h [9]: > 50 µM; CC50 at 24 h [10]: > 50 µM; Activity (West Nile virus [14]): inactive; Activity (West Nile virus [15]): Active
12 | OC[C@H]1O[C@@H](n2cnc3c(NCc4ccc(-c5ccccc5)cc4)ncnc32)[C@H](O)[C@@H]1O | > 50 µM | 13 µM | > 50 µM | > 50 µM | > 50 µM | CC50 at 24 h [9]: > 50 µM; CC50 at 24 h [10]: > 50 µM
13 | CCC(CC)COC(=O)[C@H](C)N[P@](=O)(OC[C@H]1O[C@@](C#N)(c2ccc3c(N)ncnn23)[C@H](O)[C@@H]1O)Oc1ccccc1 [REMDESIVIR] |  |  |  |  |  | selectivity ratio [16]: 4.8; EC50 ([17]; Tick-borne encephalitis virus, A549): 2.1 µM; EC50 ([17]; a549): 3.5 µM
14 | OC[C@H]1O[C@@H](n2cnc3c(NCc4ccc(C#Cc5cc(C(F)(F)F)cc(C(F)(F)F)c5)cc4)ncnc32)[C@H](O)[C@@H]1O | 5.6 µM | 1.5 µM | 8.1 µM | 2.2 µM | 15.7 µM | 
15 | OC[C@H]1O[C@@H](n2cnc3c(NCc4ccc(C#Cc5ccccc5)cc4)ncnc32)[C@H](O)[C@@H]1O | 33 µM | 9.7 µM | > 50 µM | 36.6 µM | > 50 µM | 
16 | Nc1ncnc2c1ncn2[C@@H]1O[C@H](CO)[C@@H](F)[C@H]1O |  |  |  |  |  | EC50 [18]: 1.6 µM
17 | OC[C@H]1O[C@@H](n2cnc3c(NCc4ccc(C#CC5CCCC5)cc4)ncnc32)[C@H](O)[C@@H]1O | 17.8 µM | 18 µM | 37 µM | 8 µM | 38 µM | 
18 | C[C@@]1(O)[C@H](O)[C@@H](CO)O[C@H]1n1ccc(N)nc1=O |  |  |  |  |  | EC50 [7]: 14.2 µM
19 | C[C@@]1(O)[C@H](O)[C@@H](CO)O[C@H]1n1ccc2c(N)ncnc21 [BETA-2'-C-METHYL-7-DEAZA-ADENOSINE] |  |  |  |  |  | EC50 [7]: 5.1 µM
20 | C#C[C@@]1(O)[C@H](O)[C@@H](CO)O[C@H]1n1ccc2c(N)ncnc21 |  |  |  |  |  | EC50 [19]: 0.2 µM
21 | OC[C@H]1O[C@@H](n2cnc3c(NCc4ccc(C#CC5=CCCCC5)cc4)ncnc32)[C@H](O)[C@@H]1O | 24 µM | 5 µM | 36.6 µM | 10 µM | > 50 µM | Activity (West Nile virus [11]): inactive; Activity (West Nile virus [12]): inactive; Activity (West Nile virus [13]): Active; Activity (West Nile virus [14]): inactive; Activity (West Nile virus [15]): Active
22 | Nc1onc(C(=O)OCC23CC4CC(CC(C4)C2)C3)c1CCc1ccccc1 | 2.2 µM |  | > 100 µM |  | > 100 µM | EC50 [20]: 1.8 µM; EC50 (West Nile virus [21]): 1.8 µM
23 | OC[C@H]1O[C@@H](n2cnc3c(NCc4ccc(-c5ccc(C(F)(F)F)cc5)cc4)ncnc32)[C@H](O)[C@@H]1O | 27 µM | 8.3 µM | 26 µM | 4.7 µM | 28.5 µM | 
